Columns and labels:
[1] = tested on: spinal muscular atrophy fibroblasts; test: Mitotracker Red CMXROS staining; type: cell-based, human; conditions: 2.5 mM 4PBA, HU, 100 nM TSA or 2.5 mM SFN for 5 days; FIG. 7
Procedure: SMA type I (GM00232) fibroblasts were treated with 2.5 mM 4PBA, 300 mM HU, 100 nM TSA or 2.5 mM SFN for 5 days, live stained with 25 nM Mitotracker Red CMXROS (Invitrogen) in pre-warmed MEM media for 15 min at 37° C. in a CO2 incubator. Stained cells were washed with pre-warmed MEM, washed with PBS and excess PBS was removed. The cells were examined under the microscope at ×80.
Spinal muscular atrophy fibroblasts were treated with 2.5 mM 4PBA, 300 mM HU, 100 nM TSA or 2.5 mM SFN for 5 days (×80 magnification).

[2] = tested on: HSPA1A (HSP70), DNAJC3 (HSP40), HSP90AA1 (HSP90); test: RT-PCR of heat shock response (HSR) genes; type: cell-based, human; conditions: for transcription of HSPA1A (HSP70): FIG. 3A
Procedure: Following the manufacturer's protocols, DNase I-treated cDNA was synthesized using Superscript III or Thermoscript reverse transcriptase (Invitrogen). PCR reactions were performed in duplicate on the Roche Lightcycler 3.5 (Basel, Switzerland) or the Bio-Rad iCycler (Hercules, Calif.) using Quantitech SYBR green PCR mix (Qiagen, Valencia, Calif.). GeNorm software calculated a normalization factor for each sample using the relative amounts of at least two of the following reference genes, β2-microglobulin, glyceraldehyde-6-phosphate, actin, and/or eukaryotic elongation factor 1A (Vandesompele et al., 2002).
Expression of key components of the HSR, UPR, the autophagic response, and the antioxidant response were monitored at the transcriptional, translational, and/or post-translational level. […] Due to the transient nature of these responses, several components of each pathway were monitored at various time points within a 24 hour treatment. At least two normal human fibroblast lines were tested in three or more independent experiments. […] The average of the maximal increase in protein expression within a 24 hour time frame was also compared to the untreated sample. Activation of each pathway was assessed by an increase in one or more components of each pathway.
To evaluate its activation, the expression of heat shock protein (HSP) 40, HSP 70, and HSP 90 family members was monitored. […] Normal human fibroblasts were treated and the mRNA expression of HSPA1A (HSP70), DNAJC3 (HSP40), and HSP90AA1 (HSP90) was measured and plotted as in FIG. 2E.

[3] = target: T1, human recombinant SIRT1 (Homo sapiens, UniProt Q96EB6); test: Fluorescence-based SIRT1 activity assay; type: biochemical; conditions: for SIRT1 activity: low and high (10 times) concentration, FIG. 9
T1 construct: purchased Cayman Chemical Company 10010401
T1 sequence (Q96EB6 1-747): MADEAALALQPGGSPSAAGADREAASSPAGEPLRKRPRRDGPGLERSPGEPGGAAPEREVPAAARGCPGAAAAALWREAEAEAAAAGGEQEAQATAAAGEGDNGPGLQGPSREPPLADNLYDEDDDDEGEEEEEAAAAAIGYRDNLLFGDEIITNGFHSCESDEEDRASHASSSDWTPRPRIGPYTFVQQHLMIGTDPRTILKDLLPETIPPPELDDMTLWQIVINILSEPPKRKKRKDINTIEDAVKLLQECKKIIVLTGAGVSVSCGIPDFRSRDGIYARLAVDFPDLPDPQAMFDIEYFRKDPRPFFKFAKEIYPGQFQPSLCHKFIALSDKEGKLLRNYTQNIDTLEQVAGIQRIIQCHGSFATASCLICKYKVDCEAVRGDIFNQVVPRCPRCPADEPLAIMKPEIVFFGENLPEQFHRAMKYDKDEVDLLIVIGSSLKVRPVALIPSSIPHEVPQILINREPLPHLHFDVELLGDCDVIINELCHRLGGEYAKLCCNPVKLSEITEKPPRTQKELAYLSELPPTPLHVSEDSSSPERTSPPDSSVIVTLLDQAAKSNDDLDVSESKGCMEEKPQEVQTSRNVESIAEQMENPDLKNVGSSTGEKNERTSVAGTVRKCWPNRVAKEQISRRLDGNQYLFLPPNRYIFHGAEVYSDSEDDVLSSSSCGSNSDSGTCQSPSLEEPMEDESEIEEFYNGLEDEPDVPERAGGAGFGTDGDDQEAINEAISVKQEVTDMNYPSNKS
Procedure: A fluorescence-based SIRT1 activity assay was performed in triplicate following the manufacturer's protocol (10010401; Cayman Chemical Company, Ann Arbor, Mich., USA). The percent developer interference was below 3% for each small molecule. The percent fluorophore interference was below 9% for each small molecule. The acceptable interference values were ≦10%.
To determine whether SIRT1 activation was a common biochemical activity of the small molecules under study, a fluorescence-based in vitro SIRT1 activity assay was performed with two concentrations of each drug: that used to treat normal primary human fibroblasts in the experiments reported here (low), and 10 times that concentration, which is lethal in cell culture (high). […] This was a non-cell-based assay, and therefore, it is difficult to determine the effects of 4PBA and SFN on SIRT1 activity in vivo. Regardless, while SIRT1 activation may play a role in the induction of cellular stress responses (Anastasiou et al., 2006), direct biochemical activation or inhibition of SIRT1 is not necessary for the common pharmacological induction of the adaptive cell survival response by all four small molecules.
SIRT1 activity assay. SIRT1 activity was measured by incubating an acetylated lysine substrate with human recombinant SIRT1, cosubstrate NAD+ and the indicated concentration of each small molecule. The percent inhibition of SIRT1 is plotted. (Bars=SEM for triplicate measurements; *p≦0.05; paired t-test).

[4] = tested on: XALD fibroblasts; test: Inhibition studies: ATP5B immunofluorescence of drug-induced mitochondrial biogenesis; type: cell-based, human; conditions: four days; FIG. 2A
Procedure: Performed as described in Watkins et al., 1995 using 4% formaldehyde, 1% Triton X-100, primary antibody anti-ATP5B (Millipore, Billerica, Mass.) or anti-ABCD3 (Invitrogen, Carlsbad, Calif.), and secondary antibody sheep anti-mouse IgG FITC-conjugated (Santa Cruz Biotechnology, Santa Cruz, Calif.) or goat anti-rabbit IgG rhodamine-conjugated (Jackson ImmunoResearch, West Grove, Pa.).
Antimycin A (10 ng/mL), LY294002, PD98059, RO-31-8425, SB203580, SP600125, and L-NAME were obtained from Sigma. Compound C was from EMD Biosciences (Darmstadt, Germany). Human fibroblasts were treated with each inhibitor. Then, 45-75 min later, either 4PBA, HU, TSA, or SFN was added. Cells were stained four to six days after treatment with one of the small molecules. As a control for inhibitors dissolved in DMSO, fibroblasts were treated with an equivalent amount of DMSO in the absence of inhibitor. […]
In FIGS. 2A-B, the JNK inhibitor SP600125 (10 μM+inh) was utilized. […] XALD fibroblasts were treated with each drug for four days with or without SP600125. (400× magnification). […] Normal human fibroblasts were treated with each of the small four molecules with or without SP600125 for six days. Quantitative in-cell western analyses were performed using anti-ATP5B.

4-phenylbutyrate [4PBA]
mitochondrial biogenesis (Mitotracker staining) [1]: induced
transcription of HSPA1A (HSP70) ([2]; normal human fibroblasts): increased
inhibition of SIRT1 activity ([3]; 50 mM, high): 54%
mitochondrial biogenesis in XALD fibroblasts [4]: increased

NC(=O)NO [HU, hydroxyurea]
mitochondrial biogenesis (Mitotracker staining) [1]: induced
transcription of HSPA1A (HSP70) ([2]; normal human fibroblasts): not stimulated
SIRT1 activity [3]: no effect
mitochondrial biogenesis in XALD fibroblasts [4]: increased

C[S@@+]([O-])CCCCN=C=S [SFN, 1-isothiocyanato-4R-(methylsulfinyl)butane]
mitochondrial biogenesis (Mitotracker staining) [1]: induced
transcription of HSP40 increase ([2]; in vitro sulforaphane studies): 3 fold
transcription of HSP70 increase ([2]; in vitro sulforaphane studies): 7 fold
transcription of HSP 90 increase ([2]; in vitro sulforaphane studies): 3 fold
mRNA expression of heat-shock proteins genes increase ([2]; normal human fibroblasts, 5 micromolar (μM)): 3-7 fold
transcription of HSPA1A (HSP70) ([2]; normal human fibroblasts): increased
inhibition at 5000 µM ([3]; 5 mM): 14%
inhibition at 50000 µM ([3]; 50 mM): 40%
mitochondrial biogenesis in XALD fibroblasts [4]: increased

CC(/C=C/C(=O)NO)=C\[C@@H](C)C(=O)c1ccc(N(C)C)cc1 [TSA, trichostatin A]
mitochondrial biogenesis (Mitotracker staining) [1]: induced
transcription of HSPA1A (HSP70) ([2]; normal human fibroblasts): increased
SIRT1 activity [3]: no effect
mitochondrial biogenesis in XALD fibroblasts [4]: increased

From US8937050B2, “Methods and compositions for treatment of autism” (The Johns Hopkins University, priority 2011, dated 2015)
